Source: patent US5574013A (Warner-Lambert Company, priority 1993, dated 1996)

Biological target: T1, CCK B (Mus musculus, UniProt P56481)
T1 construct: from tissue; host or cells: cerebral cortex membranes of male CFLP mice
T1 sequence (P56481 1-453): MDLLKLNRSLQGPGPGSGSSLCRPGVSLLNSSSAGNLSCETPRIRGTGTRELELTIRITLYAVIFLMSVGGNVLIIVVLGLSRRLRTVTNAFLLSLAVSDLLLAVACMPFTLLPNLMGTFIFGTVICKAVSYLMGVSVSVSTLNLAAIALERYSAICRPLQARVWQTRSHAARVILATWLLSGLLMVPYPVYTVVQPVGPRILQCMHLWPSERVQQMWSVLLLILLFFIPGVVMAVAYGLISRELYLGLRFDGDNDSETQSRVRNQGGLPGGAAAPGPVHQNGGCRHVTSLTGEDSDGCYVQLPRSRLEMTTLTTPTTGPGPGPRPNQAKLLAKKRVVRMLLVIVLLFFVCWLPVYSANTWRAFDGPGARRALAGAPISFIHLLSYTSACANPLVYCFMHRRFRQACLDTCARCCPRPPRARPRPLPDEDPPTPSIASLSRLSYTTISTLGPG
Test: CCK receptor binding screening test, displacement of tritiated-pentagastrin from mouse cerebral cortical membranes
Conditions: Ki by Cheng-Prusoff; 2 nM tritiated-pentagastrin; mouse cerebral cortex membranes; read-out: Binding Affinity CCK B
Procedure: The biological activity of compounds of the present invention was evaluated employing an initial screening test which rapidly and accurately measured the binding of the tested compound to known CCK receptor sites. […] (See Hays et al, Neuropeptides 1:53-62, 1980; and Satuer et al, Science 208:1155-1156, 1980.
In this screening test, the cerebral cortices taken from male CFLP mice weighing between 30-40 g were dissected on ice, weighed, and homogenized in 10 volumes of 50 mM Tris-HCl buffer (pH 7.4 at 0°-4° C.). The resulting suspension was centrifuged, the supernate was discarded, and the pellet was washed by resuspension in Tris-HCl buffer followed by recentrifugation. The final pellet was resuspended in 20 volumes of […] Hepes buffer (pH 7.2 at 23° C.) containing 130 mM NaCl, […] KCl, […] MgCl2, […] EDTA, 5 mg/mL bovine albumin, and bacitracin (0.25 mg/mL).
In saturation studies, cerebral cortical membranes were incubated at 23° C. for 120 minutes in a final volume of 500 μL of Hepes incubation buffer (pH 7.2) together with 0.2-20 nM tritiated-pentagastrin (Amersham International, England).
In the displacement experiments, membranes were incubated with a single concentration (2 nM) of ligand, together with increasing concentrations ([…]) of competitive test compound. In each case, the nonspecific binding was defined as that persisting in the presence of the unlabeled octapeptide CCK26-33 (10^-6 M).
Following incubation, radioactivity bound to membranes was separated from that free in solution by rapid filtration through Whatman GF/B filters and washed three times with 4 mL of ice cold Tris-HCl buffer. Filters from samples incubated with tritiated-pentagastrin were placed in polyethylene vials with 4 mL of scintillation cocktail, and the radioactivity was estimated by liquid scintillation spectrometry (efficiency 47-52%).
The specific binding to CCK receptor sites was defined as the total bound tritiated-pentagastrin minus the amount of tritiated-pentagastrin bound in the presence of 10^-6 octapeptide, CCK26-33.
Saturation curves for specific tritiated-pentagastrin binding to mouse cortical membranes were analyzed by the methods of Scatchard (Ann. New York Acad. Sci. 51:660-672, 1949, and Hill (J. Physiol. 40:IV-VIII, 1910, to provide estimates for the maximum number of binding sites (Bmax) and the equilibrium dissociation constant (Ka).
In displacement experiments, inhibition curves were analyzed by either logit-log plots or the iterative curve fitting computer program ALLFIT (DeLean, Munson and Redbard, 1978) to provide estimates of the IC50 and nH (apparent Hill coefficient) values). (IC50 values were defined as the concentration of test compound required to produce 50% inhibition of specific binding.)
The inhibition constant (Ki) of the test compound was then calculated according to the Cheng-Prusoff equation: [formula] where [L] is the concentration of radiolabel and Ka is the equilibrium dissociation constant.
The Ki values for several representative compounds of the present invention are present in Table I.

Row | Ki | SMILES
1 | 299 nM | C[C@](Cc1c[nH]c2ccccc12)(NC(=O)OC1C2CC3CC(C2)CC1C3)C(=O)NCCC(=O)OCc1ccccc1 (stereo partly drawn) [Example 7, Propanoic acid, 3-[(3-(1H-indol-3-yl)-2-methyl-1-oxo-2-[[(tricyclo[3.3.1.1^3,7]dec-2-yloxy)carbonyl]amino]propyl]amino]--, phenylmethyl ester (R)-]
2 | 225 nM | CCC(C)C(CO)NC(=O)C(C)(Cc1c[nH]c2ccccc12)NC(=O)OC1C2CC3CC(C2)CC1C3 (stereo not drawn) [Example 9, Carbamic acid, [2-[[1-(hydroxymethyl)-2-methylbutyl]amino]-1-(1H-indol-3-ylmethyl)-1-methyl-2-oxoethyl]-, tricyclo[3.3.1.1^3,7]dec-2-yl ester, [1S-[1R*(S*), 2R*]]-]
3 | 50.4 nM | C[C@](Cc1c[nH]c2ccccc12)(NC(=O)OC1C2CC3CC(C2)CC1C3)C(=O)NCC(=O)OCc1ccccc1 (stereo partly drawn) [Example 3, Gycine, N-[2-methyl-N-[(tricyclo[3.3.1.1^3,7]dec-2-yloxy)carbonyl]-D-tryptophyl]-, phenylmethyl ester]
4 | 24 nM | CSCC[C@H](NC(=O)[C@@](C)(Cc1c[nH]c2ccccc12)NC(=O)OC1C2CC3CC(C2)CC1C3)C(=O)O (stereo partly drawn) [Example 11, N-[α-methyl-N-[(tricyclo[3.3.1.1^3,7]dec-2-yloxy)carbonyl]-D-tryptophyl]-L-methionine]
5 | 292 nM | CC(C)CC(CO)NC(=O)C(C)(Cc1c[nH]c2ccccc12)NC(=O)OC1C2CC3CC(C2)CC1C3 (stereo not drawn) [Example 8, Carbamic acid, [2-[[1-(hydroxymethyl)-3-methylbutyl]amino]-1-(1H-indol-3-ylmethyl)-1-methyl-2-oxoethyl]-, tricyclo[3.3.1.1^3,7]dec-2-yl ester, [R-(R*,S*)]-]
6 | 1510 nM | C[C@](Cc1c[nH]c2ccccc12)(NC(=O)OC1C2CC3CC(C2)CC1C3)C(=O)NCC(=O)O (stereo partly drawn) [Example 4]

Row | SMILES | Ki
7 | COC(=O)CCCNC(=O)[C@@](C)(Cc1c[nH]c2ccccc12)NC(=O)OC1C2CC3CC(C2)CC1C3 (stereo partly drawn) [Example 1, Butanoic acid, 4-[[3-(1H-indol-3-yl)-2-methyl-1-oxo-2-[[(tricyclo[3.3.1.1^3,7]dec-2-yloxy)carbonyl]amino]propyl]amino]-, methyl ester (R)-] | 82.1 nM
8 | COC(=O)CCNC(=O)[C@H](CCSC)NC(=O)[C@@](C)(Cc1c[nH]c2ccccc12)NC(=O)OC1C2CC3CC(C2)CC1C3 (stereo partly drawn) [Example 12] | 30 nM
9 | C[C@](Cc1c[nH]c2ccccc12)(NC(=O)OC1C2CC3CC(C2)CC1C3)C(=O)NCCC(=O)O (stereo partly drawn) [Example 6, β-Alanine, N-[α-methyl-N-[(tricyclo[3.3.1.1^3,7]dec-2-yloxy)carbonyl]-D-tryptophyl]-] | 4380 nM
